The numbers were not newly measured in patent US20250312497A1, “METHOD OF TREATING PROSTATE CANCER” (Novartis AG, priority 2022, published 2025), which cites them from elsewhere.

Series [1] has as its system docetaxel progressing metastatic castration-resistant prostate cancer. Conditions: randomized, 200 patients; P<0.0001; cited from earlier work.
For series [2], the system named is mCRPC. Conditions: control arm; prior docetaxel and abiraterone acetate and/or enzalutamide; cited from earlier work.

With `CO[C@H]1C(=O)[C@]2(C)[C@@H](OC)C[C@H]3OC[C@@]3(OC(C)=O)[C@H]2[C@H](OC(=O)c2ccccc2)[C@]2(O)C[C@H](OC(=O)[C@H](O)[C@@H](NC(=O)OC(C)(C)C)c3ccccc3)C(C)=C1C2(C)C` [cabazitaxel], the “proportion of patients with PSA decline >=50%” value in series [1] is 37%.
For `C[C@]12C=CC(=O)C=C1CC[C@@H]1[C@@H]2C(=O)C[C@@]2(C)[C@H]1CC[C@]2(O)C(=O)CO` [prednisone], the median overall survival in series [2] was 9.8 months.
